Data from ChEMBL document CHEMBL5113453, “Design, synthesis, and biological evaluation of a new series of pyrazole derivatives: Discovery of potent and selective JNK3 kinase inhibitors” (Bioorg Med Chem, 2022).

Experiments:
CCRF-CEM = experiment: Antiproliferative activity against human CCRF-CEM cells measured after 48 hrs by SRB assay; assay type: functional, cell-based
HL-60(TB) = experiment: Antiproliferative activity against human HL-60(TB) cells measured after 48 hrs by SRB assay; assay type: functional, cell-based
K562 = experiment: Antiproliferative activity against human K562 cells measured after 48 hrs by SRB assay; assay type: functional, cell-based
SR = experiment: Antiproliferative activity against human SR cells measured after 48 hrs by SRB assay; assay type: functional, cell-based
A549 = experiment: Antiproliferative activity against human A549 cells measured after 48 hrs by SRB assay; assay type: functional, cell-based
HOP-62 = experiment: Antiproliferative activity against human HOP-62 cells measured after 48 hrs by SRB assay; assay type: functional, cell-based
NCI-H226 = experiment: Antiproliferative activity against human NCI-H226 cells measured after 48 hrs by SRB assay; assay type: functional, cell-based
NCI-H23 = experiment: Antiproliferative activity against human NCI-H23 cells measured after 48 hrs by SRB assay; assay type: functional, cell-based
NCI-H322M = experiment: Antiproliferative activity against human NCI-H322M cells measured after 48 hrs by SRB assay; assay type: functional, cell-based
NCI-H460 = experiment: Antiproliferative activity against human NCI-H460 cells measured after 48 hrs by SRB assay; assay type: functional, cell-based
NCI-H522 = experiment: Antiproliferative activity against human NCI-H522 cells measured after 48 hrs by SRB assay; assay type: functional, cell-based
HCT-116 = experiment: Antiproliferative activity against human HCT-116 cells measured after 48 hrs by SRB assay; assay type: functional, cell-based
HT-29 = experiment: Antiproliferative activity against human HT-29 cells measured after 48 hrs by SRB assay; assay type: functional, cell-based
KM12 = experiment: Antiproliferative activity against human KM12 cells measured after 48 hrs by SRB assay; assay type: functional, cell-based
SW-620 = experiment: Antiproliferative activity against human SW-620 cells measured after 48 hrs by SRB assay; assay type: functional, cell-based
SF-268 = experiment: Antiproliferative activity against human SF-268 cells measured after 48 hrs by SRB assay; assay type: functional, cell-based
SF-539 = experiment: Antiproliferative activity against human SF-539 cells measured after 48 hrs by SRB assay; assay type: functional, cell-based
SNB-75 = experiment: Antiproliferative activity against human SNB-75 cells measured after 48 hrs by SRB assay; assay type: functional, cell-based
U-251 = experiment: Antiproliferative activity against human U-251 cells measured after 48 hrs by SRB assay; assay type: functional, cell-based
M14 = experiment: Antiproliferative activity against human M14 cells measured after 48 hrs by SRB assay; assay type: functional, cell-based
SK-MEL-2 = experiment: Antiproliferative activity against human SK-MEL-2 cells measured after 48 hrs by SRB assay; assay type: functional, cell-based
SK-MEL-28 = experiment: Antiproliferative activity against human SK-MEL-28 cells measured after 48 hrs by SRB assay; assay type: functional, cell-based
UACC-257 = experiment: Antiproliferative activity against human UACC-257 cells measured after 48 hrs by SRB assay; assay type: functional, cell-based
UACC-62 = experiment: Antiproliferative activity against human UACC-62 cells measured after 48 hrs by SRB assay; assay type: functional, cell-based
IGROV-1 = experiment: Antiproliferative activity against human IGROV-1 cells measured after 48 hrs by SRB assay; assay type: functional, cell-based
OVCAR-4 = experiment: Antiproliferative activity against human OVCAR-4 cells measured after 48 hrs by SRB assay; assay type: functional, cell-based
NCI/ADR-RES = experiment: Antiproliferative activity against human NCI-ADR-RES cells measured after 48 hrs by SRB assay; assay type: functional, cell-based
786-0 = experiment: Antiproliferative activity against human 786-0 cells measured after 48 hrs by SRB assay; assay type: functional, cell-based
CAKI-1 = experiment: Antiproliferative activity against human CAKI-1 cells measured after 48 hrs by SRB assay; assay type: functional, cell-based
RXF 393 = experiment: Antiproliferative activity against human RXF 393 cells measured after 48 hrs by SRB assay; assay type: functional, cell-based
SN12C = experiment: Antiproliferative activity against human SN12C cells measured after 48 hrs by SRB assay; assay type: functional, cell-based
DU-145 = experiment: Antiproliferative activity against human DU-145 cells measured after 48 hrs by SRB assay; assay type: functional, cell-based
MCF7 = experiment: Antiproliferative activity against human MCF7 cells measured after 48 hrs by SRB assay; assay type: functional, cell-based
MDA-MB-231 = experiment: Antiproliferative activity against human MDA-MB-231 cells measured after 48 hrs by SRB assay; assay type: functional, cell-based
BT-549 = experiment: Antiproliferative activity against human BT-549 cells measured after 48 hrs by SRB assay; assay type: functional, cell-based
T47D = experiment: Antiproliferative activity against human T47D cells measured after 48 hrs by SRB assay; assay type: functional, cell-based
MDA-MB-468 = experiment: Antiproliferative activity against human MDA-MB-468 cells measured after 48 hrs by SRB assay; assay type: functional, cell-based
[1] = biological target: Mitogen-activated protein kinase 10 (Homo sapiens, UniProt P53779); experiment: Inhibition of JNK3 (unknown origin)
Chain of Mitogen-activated protein kinase 10 (P53779 whole entry): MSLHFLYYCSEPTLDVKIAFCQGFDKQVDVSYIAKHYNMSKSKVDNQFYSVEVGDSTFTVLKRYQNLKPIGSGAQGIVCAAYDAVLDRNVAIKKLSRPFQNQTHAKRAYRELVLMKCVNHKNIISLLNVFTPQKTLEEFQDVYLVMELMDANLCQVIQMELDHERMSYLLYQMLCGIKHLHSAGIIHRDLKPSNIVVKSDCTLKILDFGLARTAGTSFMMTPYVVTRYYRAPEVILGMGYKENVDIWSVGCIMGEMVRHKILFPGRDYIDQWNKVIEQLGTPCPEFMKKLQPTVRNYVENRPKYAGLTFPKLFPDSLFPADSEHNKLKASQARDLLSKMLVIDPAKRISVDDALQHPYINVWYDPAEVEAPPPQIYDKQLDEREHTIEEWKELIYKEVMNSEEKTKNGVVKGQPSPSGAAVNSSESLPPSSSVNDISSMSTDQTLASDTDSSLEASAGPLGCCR

What does the source list for O=C(Nc1ccc(Cl)c(C(F)(F)F)c1)N1CCN(c2cc(-c3cn(-c4ccccc4)nc3-c3cccc(O)c3)ccn2)CC1?
IC50 (CCRF-CEM; 48 h): 1.59 µM; TGI (CCRF-CEM; time 48 hrs): 9.71 µM; IC50 (HL-60(TB); HL-60, 48 h): 2.34 µM; TGI (HL-60(TB); HL-60, time 48 hrs): 8.58 µM; IC50 (K562; K562, 48 h): 2.13 µM; TGI (K562; K562, time 48 hrs): > 22 µM; IC50 (SR; 48 h): 3.07 µM; TGI (SR; time 48 hrs): > 22 µM; IC50 (A549; A549, 48 h): 4.34 µM; TGI (A549; A549, time 48 hrs): > 22 µM; IC50 (HOP-62; HOP-62, 48 h): 6.28 µM; TGI (HOP-62; HOP-62, time 48 hrs): > 22 µM; IC50 (NCI-H226; NCI-H226, 48 h): 3.22 µM; TGI (NCI-H226; NCI-H226, time 48 hrs): 15.8 µM; IC50 (NCI-H23; NCI-H23, 48 h): 3.69 µM; TGI (NCI-H23; NCI-H23, time 48 hrs): 14.9 µM; IC50 (NCI-H322M; 48 h): 5.86 µM; TGI (NCI-H322M; time 48 hrs): > 22 µM; IC50 (NCI-H460; NCI-H460, 48 h): 2.47 µM; TGI (NCI-H460; NCI-H460, time 48 hrs): > 22 µM; IC50 (NCI-H522; NCI-H522, 48 h): 2.77 µM; TGI (NCI-H522; NCI-H522, time 48 hrs): 9.26 µM; IC50 (HCT-116; HCT-116, 48 h): 1.86 µM; TGI (HCT-116; HCT-116, time 48 hrs): > 22 µM; IC50 (HT-29; HT-29, 48 h): 4.1 µM; TGI (HT-29; HT-29, time 48 hrs): > 22 µM; IC50 (KM12; KM12, 48 h): 3.34 µM; TGI (KM12; KM12, time 48 hrs): 15.2 µM; IC50 (SW-620; SW-620, 48 h): 4.78 µM; TGI (SW-620; SW-620, time 48 hrs): > 22 µM; IC50 (SF-268; SF-268, 48 h): 3.3 µM; TGI (SF-268; SF-268, time 48 hrs): > 22 µM; IC50 (SF-539; SF-539, 48 h): 4.21 µM; TGI (SF-539; SF-539, time 48 hrs): > 22 µM; IC50 (SNB-75; SNB-75, 48 h): 0.63 µM; TGI (SNB-75; SNB-75, time 48 hrs): 11.1 µM; IC50 (U-251; U-251, 48 h): 4.23 µM; TGI (U-251; U-251, time 48 hrs): > 22 µM; IC50 (M14; M14, 48 h): 3.03 µM; TGI (M14; M14, time 48 hrs): 12.5 µM; IC50 (SK-MEL-2; SK-MEL-2, 48 h): 3.54 µM; TGI (SK-MEL-2; SK-MEL-2, time 48 hrs): 7.57 µM; IC50 (SK-MEL-28; SK-MEL-28, 48 h): 3.41 µM; TGI (SK-MEL-28; SK-MEL-28, time 48 hrs): 10.3 µM; IC50 (UACC-257; UACC-257, 48 h): 4.77 µM; TGI (UACC-257; UACC-257, time 48 hrs): 14.3 µM; IC50 (UACC-62; UACC-62, 48 h): 2.68 µM; TGI (UACC-62; UACC-62, time 48 hrs): 5.77 µM; IC50 (IGROV-1; IGROV-1, 48 h): 5.11 µM; TGI (IGROV-1; IGROV-1, time 48 hrs): > 22 µM; IC50 (OVCAR-4; OVCAR-4, 48 h): 2.02 µM; TGI (OVCAR-4; OVCAR-4, time 48 hrs): > 22 µM; IC50 (NCI/ADR-RES; 48 h): 2.91 µM; TGI (NCI/ADR-RES; time 48 hrs): 11.9 µM; IC50 (786-0; 786-0, 48 h): 4.02 µM; TGI (786-0; 786-0, time 48 hrs): > 22 µM; IC50 (CAKI-1; CAKI-1, 48 h): 4.18 µM; TGI (CAKI-1; CAKI-1, time 48 hrs): 19.4 µM; IC50 (RXF 393; RXF 393, 48 h): 2.42 µM; TGI (RXF 393; RXF 393, time 48 hrs): 9.79 µM; IC50 (SN12C; 48 h): 3.21 µM; TGI (SN12C; time 48 hrs): > 22 µM; IC50 (DU-145; DU-145, 48 h): 7.15 µM; TGI (DU-145; DU-145, time 48 hrs): > 22 µM; IC50 (MCF7; MCF7, 48 h): 1.8 µM; TGI (MCF7; MCF7, time 48 hrs): 10.1 µM; IC50 (MDA-MB-231; MDA-MB-231, 48 h): 3.07 µM; TGI (MDA-MB-231; MDA-MB-231, time 48 hrs): 7.57 µM; IC50 (BT-549; BT-549, 48 h): 3.33 µM; TGI (BT-549; BT-549, time 48 hrs): 7.99 µM; IC50 (T47D; 48 h): 1.13 µM; TGI (T47D; time 48 hrs): 14.8 µM; IC50 (MDA-MB-468; MDA-MB-468, 48 h): 1.03 µM; TGI (MDA-MB-468; MDA-MB-468, time 48 hrs): 7.22 µM; IC50 [1]: > 1 µM
